Experimental findings from patent US20250270213A1, “PI3Ka INHIBITORS” (Synnovation Therapeutics, Inc., priority 2022, published 2025) are described below.

The assay deals with T47D (PIK3CA H1047R) cells. As to the kind of experiment: pS473 AKT assay with 2.5% FBS, T47D cells. Conditions: Homo sapiens, pSer473 AKT, DMEM with 2.5% FBS, 2 h treatment, read-out: T47D_IC50. It is filed as cell-based. In short, it runs like this:
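T47D (PIK3CA H1047R) cells were switched to DMEM with 2.5% FBS and exposed to compounds for 2 h. After paraformaldehyde fixation, pSer473 AKT was detected by in-cell ELISA (rabbit primary, HRP anti-rabbit secondary, chemiluminescence); IC50 values were fitted from the concentration series.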

pIC50: −log10 of the molar value.

In the case of `Cc1cc(C(C)Nc2ccc(Cl)nc2-c2ccc(=O)n(C)c2)c2c(c1)c(=O)n1c3c2cnn3CCC1` (stereo not drawn) [Compound 308, 10-(1-((6-chloro-1′-methyl-6′-oxo-1′,6′-dihydro-[2,3′-pyridin]-3-yl)amino)ethyl)-8-methyl-4,5-dihydro-3H,6H-2,2a,5a-triazaaceanthrylen-6-one], the pIC50 is more than 6.00. As to `CNC(=O)c1ccc(-c2nc(Cl)ccc2NC(C)c2cc(C)cc3c(=O)n4c5c(cnn5CCC4)c23)cc1F` (stereo not drawn) [Compound 309, 4-(6-chloro-3-((1-(8-methyl-6-oxo-4,5-dihydro-3H,6H-2,2a,5a-triazaaceanthrylen-10-yl)ethyl)amino)pyridin-2-yl)-2-fluoro-N-methylbenzamide], the pIC50 was more than 6.00. Regarding `CNC(=O)c1ccc(-c2nc(Cl)ccc2NC(C)c2cc(C)cc3c(=O)n4c5c(cnn5CCC4)c23)cn1` (stereo not drawn) [Compound 310, 6-chloro-N-methyl-3-((1-(8-methyl-6-oxo-4,5-dihydro-3H,6H-2,2a,5a-triazaaceanthrylen-10-yl)ethyl)amino)-[2,3′-bipyridine]-6′-carboxamide], the pIC50 is more than 6.00. Regarding `COc1ccc(-c2nc(Cl)ccc2NC(C)c2cc(C)cc3c(=O)n4c5c(cnn5CCC4)c23)cn1` (stereo not drawn) [Compound 311, 10-(1-((6-chloro-6′-methoxy-[2,3′-bipyridin]-3-yl)amino)ethyl)-8-methyl-4,5-dihydro-3H,6H-2,2a,5a-triazaaceanthrylen-6-one], the pIC50 was more than 6.00. For `COc1cc(-c2nc(Cl)ccc2NC(C)c2cc(C)cc3c(=O)n4c5c(cnn5CCC4)c23)ccn1` (stereo not drawn) [Compound 312, 10-(1-((6-chloro-2′-methoxy-[2,4′-bipyridin]-3-yl)amino)ethyl)-8-methyl-4,5-dihydro-3H,6H-2,2a,5a-triazaaceanthrylen-6-one], the pIC50 was more than 6.00. Then `Cc1cc(C(C)Nc2ccc(Cl)nc2-c2ccnc(N(C)C)c2)c2c(c1)c(=O)n1c3c2cnn3CCC1` (stereo not drawn) [Compound 313, 10-(1-((6-chloro-2′-(dimethylamino)-[2,4′-bipyridin]-3-yl)amino)ethyl)-8-methyl-4,5-dihydro-3H,6H-2,2a,5a-triazaaceanthrylen-6-one], with more than 6.00; and `Cc1cc(C(C)Nc2ccc(Cl)nc2-c2ccc3c(c2)CN(C)C3=O)c2c(c1)c(=O)n1c3c2cnn3CCC1` (stereo not drawn) [Compound 314, 10-(1-((6-chloro-2-(2-methyl-1-oxoisoindolin-5-yl)pyridin-3-yl)amino)ethyl)-8-methyl-4,5-dihydro-3H,6H-2,2a,5a-triazaaceanthrylen-6-one], with more than 6.00; and `Cc1cc(C(C)Nc2ccc(Cl)nc2-c2ccc3ncccc3c2)c2c(c1)c(=O)n1c3c2cnn3CCC1` (stereo not drawn) [Compound 315, 10-(1-((6-chloro-2-(quinolin-6-yl)pyridin-3-yl)amino)ethyl)-8-methyl-4,5-dihydro-3H,6H-2,2a,5a-triazaaceanthrylen-6-one], with more than 6.00. Then `Cc1cc(C(C)Nc2ccc(Cl)nc2-c2ccc3c(cnn3C)c2)c2c(c1)c(=O)n1c3c2cnn3CCC1` (stereo not drawn) [Compound 316, 10-(1-((6-chloro-2-(1-methyl-1H-indazol-5-yl)pyridin-3-yl)amino)ethyl)-8-methyl-4,5-dihydro-3H,6H-2,2a,5a-triazaaceanthrylen-6-one], with more than 6.00; and `CNC(=O)c1ccc(-c2nc(C)ccc2NC(C)c2cc(C)cc3c(=O)n4c5c(cnn5CCC4)c23)cc1F` (stereo not drawn) [Compound 317, 2-fluoro-N-methyl-4-(6-methyl-3-((1-(8-methyl-6-oxo-4,5-dihydro-3H,6H-2,2a,5a-triazaaceanthrylen-10-yl)ethyl)amino)pyridin-2-yl)benzamide], with more than 6.00. On to `Cc1cc(C(C)Nc2ccc(C)nc2-c2cnn(C3CCOCC3)c2)c2c(c1)c(=O)n1c3c2cnn3CCC1` (stereo not drawn) [Compound 318, 8-methyl-10-(1-((6-methyl-2-(1-(tetrahydro-2H-pyran-4-yl)-1H-pyrazol-4-yl)pyridin-3-yl)amino)ethyl)-4,5-dihydro-3H,6H-2,2a,5a-triazaaceanthrylen-6-one], for which the pIC50 is more than 6.00. As for `Cc1cc(C(C)Nc2ccc(C)nc2-c2cnn(CCO)c2)c2c(c1)c(=O)n1c3c2cnn3CCC1` (stereo not drawn) [Compound 319, 10-(1-((2-(1-(2-hydroxyethyl)-1H-pyrazol-4-yl)-6-methylpyridin-3-yl)amino)ethyl)-8-methyl-4,5-dihydro-3H,6H-2,2a,5a-triazaaceanthrylen-6-one], the pIC50 is more than 6.00. Then `Cc1cc(C(C)Nc2ccc(C)nc2-c2ccnc(C)c2)c2c(c1)c(=O)n1c3c2cnn3CCC1` (stereo not drawn) [Compound 320, 10-(1-((2′,6-dimethyl-[2,4′-bipyridin]-3-yl)amino)ethyl)-8-methyl-4,5-dihydro-3H,6H-2,2a,5a-triazaaceanthrylen-6-one], with more than 6.00; and `Cc1cc(C(C)Nc2ccc(C)nc2-c2cnn(C3CC3)c2)c2c(c1)c(=O)n1c3c2cnn3CCC1` (stereo not drawn) [Compound 321, 10-(1-((2-(1-cyclopropyl-1H-pyrazol-4-yl)-6-methylpyridin-3-yl)amino)ethyl)-8-methyl-4,5-dihydro-3H,6H-2,2a,5a-triazaaceanthrylen-6-one], with more than 6.00; and `Cc1cc(C(C)Nc2ccc(Cl)nc2N2CCN3C(=O)OCC3C2)c2c(c1)c(=O)n1c3c2cnn3CCC1` (stereo not drawn) [Compound 322, 7-(6-chloro-3-((1-(8-methyl-6-oxo-4,5-dihydro-3H,6H-2,2a,5a-triazaaceanthrylen-10-yl)ethyl)amino)pyridin-2-yl)hexahydro-3H-oxazolo[3,4-a]pyrazin-3-one], with more than 6.00.

As for `Cc1cc(C(C)Nc2ccc(Cl)nc2-c2cnn3c2CN(C)CC3)c2c(c1)c(=O)n1c3c2cnn3CCC1` (stereo not drawn) [Compound 323, 10-(1-((6-Chloro-2-(5-methyl-4,5,6,7-tetrahydropyrazolo[1,5-a]pyrazin-3-yl)pyridin-3-yl)amino)ethyl)-8-methyl-4,5-dihydro-3H,6H-2,2a,5a-triazaaceanthrylen-6-one], the pIC50 is more than 6.00.

For the compound `Cc1cc(C(C)Nc2ccc(Cl)nc2-c2ccc(CN(C)C)nc2)c2c(c1)c(=O)n1c3c2cnn3CCC1` (stereo not drawn) [Compound 324, 10-(1-((6-Chloro-6′-((dimethylamino)methyl)-[2,3′-bipyridin]-3-yl)amino)ethyl)-8-methyl-4,5-dihydro-3H,6H-2,2a,5a-triazaaceanthrylen-6-one], the pIC50 was more than 6.00.

On to `Cc1cc(C(C)Nc2ccc(C)nc2-c2noc(=O)[nH]2)c2c(c1)c(=O)n1c3c2cnn3C(C)CC1` (stereo not drawn) [Compound 325, 3-(3-((1-(3,8-Dimethyl-6-oxo-4,5-dihydro-3H,6H-2,2a,5a-triazaaceanthrylen-10-yl)ethyl)amino)-6-methylpyridin-2-yl)-1,2,4-oxadiazol-5(4H)-one], for which the pIC50 was more than 6.00. With `Cc1cc(C(C)Nc2ccc(C)nc2-c2nnn(C)n2)c2c(c1)c(=O)n1c3c2cnn3CCC1` (stereo not drawn) [Compound 326, 8-Methyl-10-(1-((6-methyl-2-(2-methyl-2H-tetrazol-5-yl)pyridin-3-yl)amino)ethyl)-4,5-dihydro-3H,6H-2,2a,5a-triazaaceanthrylen-6-one], the pIC50 is more than 6.00.

Regarding `CCn1ncc2c3c(C(C)Nc4ccc(C)nc4-c4noc(=O)[nH]4)cc(C)cc3c(=O)n(C)c21` (stereo not drawn) [Compound 327, 3-(3-((1-(3-Ethyl-4,7-dimethyl-5-oxo-4,5-dihydro-3H-pyrazolo[3,4-c]isoquinolin-9-yl)ethyl)amino)-6-methylpyridin-2-yl)-1,2,4-oxadiazol-5(4H)-one], the pIC50 was more than 6.00. For `Cc1cc(C(CO)Nc2ccc(Cl)nc2-c2ncn(C)n2)c2c(c1)c(=O)n1c3c2cnn3CCC1` (stereo not drawn) [Compound 328, 10-(1-((6-Chloro-2-(1-methyl-1H-1,2,4-triazol-3-yl)pyridin-3-yl)amino)-2-hydroxyethyl)-8-methyl-4,5-dihydro-3H,6H-2,2a,5a-triazaaceanthrylen-6-one], the pIC50 is more than 6.00. On to `Cc1cc(C(CO)Nc2ccc(Cl)nc2-c2cnn(C)c2)c2c(c1)c(=O)n1c3c2cnn3CCC1` (stereo not drawn) [Compound 329, 10-(1-((6-chloro-2-(1-methyl-1H-pyrazol-4-yl)pyridin-3-yl)amino)-2-hydroxyethyl)-8-methyl-4,5-dihydro-3H,6H-2,2a,5a-triazaaceanthrylen-6-one], for which the pIC50 is more than 6.00. Then `Cc1cc(C(CO)Nc2ccc(Cl)nc2-c2cnn(C)c2C)c2c(c1)c(=O)n1c3c2cnn3CCC1` (stereo not drawn) [Compound 330, 10-(1-((6-chloro-2-(1,5-dimethyl-1H-pyrazol-4-yl)pyridin-3-yl)amino)-2-hydroxyethyl)-8-methyl-4,5-dihydro-3H,6H-2,2a,5a-triazaaceanthrylen-6-one], with more than 6.00; and `Cc1cc(C(CO)Nc2ccc(Cl)nc2-c2nnco2)c2c(c1)c(=O)n1c3c2cnn3CCC1` (stereo not drawn) [Compound 331, 10-(1-((6-chloro-2-(1,3,4-oxadiazol-2-yl)pyridin-3-yl)amino)-2-hydroxyethyl)-8-methyl-4,5-dihydro-3H,6H-2,2a,5a-triazaaceanthrylen-6-one], with more than 6.00; and `Cc1cc(C(CO)Nc2ccc(Cl)nc2-c2nnn(C)n2)c2c(c1)c(=O)n1c3c2cnn3CCC1` (stereo not drawn) [Compound 332, 10-(1-((6-chloro-2-(2-methyl-2H-tetrazol-5-yl)pyridin-3-yl)amino)-2-hydroxyethyl)-8-methyl-4,5-dihydro-3H,6H-2,2a5a-triazaaceanthrylen-6-one], with more than 6.00. Then `Cc1cc(C(CO)Nc2ccc(Cl)nc2-c2ccc3c(c2)CN(C)C3=O)c2c(c1)c(=O)n1c3c2cnn3CCC1` (stereo not drawn) [Compound 333, 10-(1-((6-chloro-2-(2-methyl-1-oxoisoindolin-5-yl)pyridin-3-yl)amino)-2-hydroxyethyl)-8-methyl-4,5-dihydro-3H,6H-2,2a,5a-triazaaceanthrylen-6-one], with more than 6.00; and `CCn1ncc2c3c(C(CN4CCN(C)CC4)Nc4ccc(Cl)nc4-c4cnn(C)c4)cc(C)cc3c(=O)n(C)c21` (stereo not drawn) [Compound 334, 9-(1-((6-Chloro-2-(1-methyl-1H-pyrazol-4-yl)pyridin-3-yl)amino)-2-(4-methylpiperazin-1-yl)ethyl)-3-ethyl-4,7-dimethyl-3,4-dihydro-5H-pyrazolo[3,4-c]isoquinolin-5-one], with more than 6.00.
